Patent publication US20240025892A1 (priority 2020, published 2024)
Read-outs that look alike come from different tables or passages of the source.

Key:
CRTC2 (TORC2) = assay: CRTC2 nuclear translocation (PathHunter U2OS); format: cell-based; details: maximal CRTC2 nuclear translocation, U2OS cells, 90 minutes, maximum dose 10 μM
Excerpt: PathHunter® Nuclear Translocation cell lines are engineered to co-express two fusion proteins: a) Enzyme Donor (ED) tagged target protein; b) an Enzyme Acceptor (EA) tagged TAZ domain, derived from the CBP/P300 transcription factor, that localizes to the nucleus. Activation of the signaling pathway induces translocation of the ED-tagged target protein into the nucleus, which will force complementation of the two enzyme fragments, and result in the formation of a functional enzyme that will hydrolyze substrate and generate a chemiluminescent signal. U2OS CRTC2 (TORC2) translocation assays were performed in 384 well plates at Eurofins DiscoverX (Freemont, CA). Cells were treated with compounds for 90 minutes in experimental duplicates in 5 point dose response format (4-fold serial dilutions with a maximum dose of 10 μM) followed by […] readout on an Envision 2104 Multilabel Reader. In all experiments, forskolin was used as a positive control and maximal CRTC2 nuclear translocation induced by each compound is expressed as a percentage of the signal stimulated by forskolin.
Representative data are shown in FIG. 4A and presented as percent of the positive control (forskolin) signal.

Recombinant SIK2 = Recombinant SIK2 (Homo sapiens (Human), UniProt Q9H0K1); assay: biochemical
Procedure: Assays were performed in base reaction buffer (20 mM Hepes (pH 7.5), 10 mM MgCl2, 1 mM EGTA, 0.02% Brij35, 0.02 mg/mL BSA, 0.1 mM Na3VO4, 2 mM DTT, 1% DMSO). Compounds were dissolved in 100% DMSO in a 10 mM stock. […] Assays were performed for 20 minutes at room temperature, after which time ^33P-ATP (10 μCi/μL) was added followed by incubation for another 120 minutes at room temperature. Thereafter, radioactivity incorporated into the pEY peptide substrate was detected by filter-binding method. Kinase activity data were expressed as the percent remaining kinase activity in test samples compared to DMSO reactions. IC50 values and curve fits were obtained using Prism (GraphPad Software).

RANKL = RANKL gene expression in Ocy454 cells (RT-qPCR); details: maximal RANKL fold induction versus DMSO, four hours;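 further: Ocy454 cells moved to 37 °C for osteocytic differentiation before compound exposure, RANKL mRNA by SYBR Green qRT-PCR, 2^−ΔΔCT with β-actin normalization, duplicate wells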
[1] = recombinant SIK2 2.5 nM, 1 μM ATP, read-out: SIK2 IC50

Recombinant SIK2, sequence (Q9H0K1 whole entry): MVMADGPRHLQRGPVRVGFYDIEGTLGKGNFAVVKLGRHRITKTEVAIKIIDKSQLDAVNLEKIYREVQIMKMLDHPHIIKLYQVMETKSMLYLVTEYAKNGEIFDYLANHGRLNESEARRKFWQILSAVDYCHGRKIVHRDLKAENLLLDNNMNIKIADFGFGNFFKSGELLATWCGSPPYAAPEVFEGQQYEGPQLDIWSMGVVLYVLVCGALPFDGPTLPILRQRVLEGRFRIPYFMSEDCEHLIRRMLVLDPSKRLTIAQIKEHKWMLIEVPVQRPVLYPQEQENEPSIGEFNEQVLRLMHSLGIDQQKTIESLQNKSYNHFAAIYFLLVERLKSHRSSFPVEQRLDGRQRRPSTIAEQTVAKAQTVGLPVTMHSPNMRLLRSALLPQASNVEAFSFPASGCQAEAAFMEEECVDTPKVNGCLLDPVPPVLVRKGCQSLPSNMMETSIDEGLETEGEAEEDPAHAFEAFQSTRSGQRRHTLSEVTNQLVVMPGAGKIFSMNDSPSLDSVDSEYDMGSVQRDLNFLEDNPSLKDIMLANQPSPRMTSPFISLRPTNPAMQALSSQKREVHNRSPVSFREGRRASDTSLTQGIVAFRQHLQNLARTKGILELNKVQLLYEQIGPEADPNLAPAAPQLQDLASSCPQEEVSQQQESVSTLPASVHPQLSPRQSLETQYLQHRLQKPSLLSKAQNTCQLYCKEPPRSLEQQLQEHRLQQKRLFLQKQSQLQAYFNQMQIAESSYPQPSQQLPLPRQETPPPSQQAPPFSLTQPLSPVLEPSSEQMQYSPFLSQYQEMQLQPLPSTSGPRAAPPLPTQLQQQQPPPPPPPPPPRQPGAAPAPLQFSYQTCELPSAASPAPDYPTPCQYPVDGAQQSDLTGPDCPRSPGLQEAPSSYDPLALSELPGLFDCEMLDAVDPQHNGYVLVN

Structure (SMILES)	CRTC2 Efficacy (% of forskolin) (CRTC2 (TORC2))	IC50 (Recombinant SIK2; [1]) [nM]	RANKL Fold Induction (RANKL) [fold]	IC50 (Recombinant SIK2; initial in vitro testing, read-out: SIK2 inhibition IC50) [nM]
N#Cc1ccc(-n2cnc3cc(C(=O)NCc4cccnc4)ccc32)cc1 [Example 32, 1-(4-cyanophenyl)-N-(3-pyridylmethyl)benzimidazole-5-carboxamide]	10.6 % of forskolin	–	–	–
N#Cc1ccc(-c2cnc3cc(C(=O)NCc4ccco4)ccn23)cc1 [Example 27, 3-(4-cyanophenyl)-N-(furan-2-ylmethyl)imidazo[1,2-a]pyridine-7-carboxamide]	5.3 % of forskolin	132	–	–
N#Cc1ccc(-n2cnc3cc(C(=O)NCc4nc5ccccc5[nH]4)ccc32)cc1 [Example 34, N-((1H-benzo[d]imidazol-2-yl)methyl)-1-(4-cyanophenyl)-1H-benzo[d]imidazole-5-carboxamide]	14 % of forskolin	20	–	–
CCn1cc(-c2ccc3c(c2)ncn3-c2ccc(C#N)cc2)cn1 [Example 43, 4-[5-(1-Ethylpyrazol-4-yl)benzimidazol-1-yl]benzonitrile]	–	5.89	7.09	–
CC1(COc2ccc3c(c2)ncn3-c2ccc3cccc(OC4CNC4)c3n2)COC1 [Example 9, 8-(azetidin-3-yloxy)-2-(5-((3-methyloxetan-3-yl)methoxy)-1H-benzo[d]imidazol-1-yl)quinoline]	–	24.6	9.69	–
N#Cc1ccc(-c2cnc3cc(-c4cn(C5CC5)nn4)ccn23)cc1 [Example 66, 4-[7-(1-Cyclopropyltriazol-4-yl)imidazo[1,2-a]pyridin-3-yl]benzonitrile]	–	37	–	–
CC1(COc2ccn3c(-c4ccc5cccc(N6CCC(N)CC6)c5n4)cnc3c2)COC1 [Example 13, 1-(2-(7-((3-Methyloxetan-3-yl)methoxy)imidazo[1,2-a]pyridin-3-yl)quinolin-8-yl)piperidin-4-amine]	140.6 % of forskolin	4.19	–	–
Cc1cn(-c2cccc3ccc(-n4cnc5cc(OCC6(C)COC6)ccc54)nc23)cn1 [Example 1, 8-(4-Methylimidazol-1-yl)-2-[5-[(3-methyloxetan-3-yl)methoxy]benzimidazol-1-yl]quinoline]	–	30.7	3.08	–
CCn1cc(-c2cnc3c(-c4ccc(C#N)cc4)cnn3c2)cn1 [Example 63, 4-[6-(1-Ethylpyrazol-4-yl)pyrazolo[1,5-a]pyrimidin-3-yl]benzonitrile]	–	3.4	0.89	–
CC1(COc2ccc3c(c2)ncn3-c2ccc3cccc(N4CCC5(CCNC5)C4)c3n2)COC1 (stereo not drawn) [Example 6, 2-(5-((3-methyloxetan-3-yl)methoxy)-1H-benzo[d]imidazol-1-yl)-8-(2,7-diazaspiro[4.4]nonan-2-yl)quinoline]	127.8 % of forskolin	5.75	–	–
Cn1cnc(-c2cccc3ccc(-n4cnc5cc(OCC6(C)COC6)ccc54)nc23)c1 [Example 18, 8-(1-Methyl-1H-imidazol-4-yl)-2-(5-((3-methyloxetan-3-yl)methoxy)-1H-benzo[d]imidazol-1-yl)quinoline]	–	185	7.49	–
COc1cc(-c2cnc3cc(OCC4(C)COC4)ccn23)cc(OC)c1C#N [Example 40, 2,6-dimethoxy-4-(7-((3-methyloxetan-3-yl)methoxy)imidazo[1,2-a]pyridin-3-yl)benzonitrile]	–	9.87	–	–
N#Cc1ccc(-c2cnc3cc(-c4cnn(C5COC5)c4)ccn23)cc1 [Example 50, 4-(7-(1-(oxetan-3-yl)-1H-pyrazol-4-yl)imidazo[1,2-a]pyridin-3-yl)benzonitrile]	–	2.34	15.84	–
N#Cc1ccc(-c2cnn3cc(-c4cnn(C5CC5)c4)cnc23)cc1 [Example 64, 4-[6-(1-Cyclopropylpyrazol-4-yl)pyrazolo[1,5-a]pyrimidin-3-yl]benzonitrile]	–	8.8	0.47	–
CCn1nnc(-c2ccn3c(-c4ccc(C#N)cc4)cnc3c2)n1 [Example 67, 4-[7-(2-Ethyltetrazol-5-yl)imidazo[1,2-a]pyridin-3-yl]benzonitrile]	–	227	0.47	–
CCn1cc(-c2c(OC)cc(-c3cnn4cc(-c5cnn(C6CC6)c5)ccc34)cc2OC)nn1 [Example 65, 6-(1-Cyclopropylpyrazol-4-yl)-3-[4-(1-ethyltriazol-4-yl)-3,5-dimethoxy-phenyl]pyrazolo[1,5-a]pyridine]	–	23.7	–	–
N#Cc1ccc(-c2cnc3cc(C(=O)NCc4cnccn4)ccn23)cc1 [Example 21, 3-(4-cyanophenyl)-N-(pyrazin-2-ylmethyl)imidazo[1,2-a]pyridine-7-carboxamide]	9.9 % of forskolin	118	–	–
N#Cc1ccc(-c2cnc3cc(-n4cnc(C5CC5)c4)ccn23)cc1 [Example 48, 4-[7-(4-Cyclopropylimidazol-1-yl)imidazo[1,2-a]pyridin-3-yl]benzonitrile]	–	7.65	–	–
CCc1nnc(-c2c(F)cc(-c3cnc4cc(-c5cnn(C)c5)ccn34)cc2F)o1 [Example 58, 2-(2,6-difluoro-4-(7-(1-methyl-1H-pyrazol-4-yl)imidazo[1,2-a]pyridin-3-yl)phenyl)-5-ethyl-1,3,4-oxadiazole]	–	1080	1.26	–
N#Cc1ccc(-c2cnn3cc(-c4cnn(C5CC5)c4)ccc23)cc1 [Example 54, 4-(6-(1-cyclopropyl-1H-pyrazol-4-yl)pyrazolo[1,5-a]pyridin-3-yl)benzonitrile]	–	2.24	9.07	–
N#Cc1ccc(-n2cnc3cc(-c4cnn(C5CC5)c4)ccc32)cc1 [Example 44, 4-(5-(1-Cyclopropyl-1H-pyrazol-4-yl)-1H-benzo[d]imidazol-1-yl)benzonitrile]	–	2.34	3.07	–
N#Cc1ccc(-c2cnc3nc(C(=O)NCc4cccnc4)ccn23)cc1 [Example 36, 3-(4-cyanophenyl)-N-(3-pyridylmethyl)imidazo[1,2-a]pyrimidine-7-carboxamide]	2.5 % of forskolin	5300	–	–
CCc1nnc(-c2c(Cl)cc(-c3cnc4cc(-c5cnn(C)c5)ccn34)cc2Cl)o1 [Example 59, 2-(2,6-dichloro-4-(7-(1-methyl-1H-pyrazol-4-yl)imidazo[1,2-a]pyridin-3-yl)phenyl)-5-ethyl-1,3,4-oxadiazole]	–	270	–	–
CN1CC(Oc2cccc3ccc(-n4cnc5cc(OCC6(C)COC6)ccc54)nc23)C1 [Example 11, 8-((1-Methylazetidin-3-yl)oxy)-2-(5-((3-methyloxetan-3-yl)methoxy)-1H-benzo[d]imidazol-1-yl)quinoline]	–	22.7	1.38	–
COc1cc(-c2cnc3cc(-c4cnn(C5CC5)c4)ccn23)cc(OC)c1C(=O)NN [Cmpd. 55A, 4-(7-(1-cyclopropyl-1H-pyrazol-4-yl)imidazo[1,2-a]pyridin-3-yl)-2,6-dimethoxybenzohydrazide]	–	–	–	< 0.1
CCn1cc(-c2ccn3c(-c4ccc(C#N)nc4)cnc3c2)cn1 [Example 46, 5-(7-(1-ethyl-1H-pyrazol-4-yl)imidazo[1,2-a]pyridin-3-yl)picolinonitrile]	–	14	3.44	–
